Literature values, collected in patent US20220235393A1, “SURROGATE VIRUS ASSAYS AND METHODS” (priority 2019, published 2022).

Test system: ASFV

O=C(O)CC(O)(CC(=O)O)C(=O)O [citric acid]
inactivation of virus applied to wood surfaces: completely inactivated
